Assay results as given in patent US20230365561A1, “BETA-LACTAMASE INHIBITORS AND THEIR PREPARATION” (NINGXIA ACADEMY OF AGRICUL TURE AND FORESTRY SCIENCES, priority 2020, published 2023).
Counter-ions that a name gives are not always drawn. Like-named read-outs stand apart in the source and are kept apart here.

What was measured:
Assay type in all cases: cell-based
[1] = test system: A. baumannii clinical isolate (strain 7); experiment: MIC by broth microdilution (alone and in combination with meropenam), strain 7; details: Acinetobacter baumannii, compound alone
Experimental: (§1) Compounds of the present invention alone, meropenam (MER) alone, and as a combination with test antibiotic (meropenam) were tested for antimicrobial activity by determing minimum inhibitory concentration (MIC, mg/L) using the broth microdilution method according to the guidelines of the Clinical Laboratories and Stansards Insitute (“Methods for Dilution Antimicrobial Suscetibility Tests for Bacterial that Grow Aerobiclly”, Approved standard, […]., Clinical and Laboratories Stanards Institute (CLSI) Document M7-A8, Wayne, Pa., USA, 2009). Meropenam as a test antibiotic compound was dissolved in DMSO. Meropenam was then diluted in microbial growth medium (Mueller-Hinton Broth II, cation adjusted) resulting in a final concention range of 0.125-64 mg/L in serial two-fold dilution. In all cases the filnal DMSO concentraion was less than 0.5%. Bacteria were added to 96-well microtitre plates containing the serial two-fold dilutions of the compoumds; the final cell density was appoximately 5x10^5 colony forming units/mL (CFU/mL). Plates were incubated at 37° C. for 18-24 hours and read visually. The MIC, i.e. the lowest concentration of the test compound that inhibited visible growth of the bacteria, was recorded. The same assay conditions were used when the compounds of present invention alone, and as a combination with test meropenam antibiotic compound was tested for minmum inhibitory concentration (MIC, mg/L). Whileest meropenam was serially diluted as descrribed above, a constant concentration of the present invention of 4 µg/mL was used.
(§2) Bacterial strains that were used to evaluate the antimicrobial activity using the MIC determination included but were not limited to E. coli clinical isolate (strain 1), E. coli 8739 (strain 2), K. pneumoniae clinical isolate (strain 3), K. pneumoniae 700603 (strain 4), E. cloacae clinical isolate (strain 5), E. cloacae 700323 (strain 6), A. baumannii clinical isolate (strain 7), A. baumannii 19606 (strain 8), P. aeruginosa clinical isolate (strain 9), P. aeruginosa 9027 (strain 10).

[2] = test system: K. pneumoniae clinical isolate (strain 3); experiment: MIC by broth microdilution (alone and in combination with meropenam), strain 3; details: Klebsiella pneumoniae, compound alone
Experimental: as §1, §2

[3] = test system: A. baumannii 19606 (strain 8); experiment: MIC by broth microdilution (alone and in combination with meropenam), strain 8; details: Acinetobacter baumannii, compound alone
Experimental: as §1, §2

[4] = test system: E. cloacae clinical isolate (strain 5); experiment: MIC by broth microdilution (alone and in combination with meropenam), strain 5; details: Enterobacter cloacae, compound alone
Experimental: as §1, §2

[5] = test system: E. coli clinical isolate (strain 1); experiment: MIC by broth microdilution (alone and in combination with meropenam), strain 1; details: Escherichia coli, compound alone
Experimental: as §1, §2

[6] = test system: P. aeruginosa clinical isolate (strain 9); experiment: MIC by broth microdilution (alone and in combination with meropenam), strain 9; details: Pseudomonas aeruginosa, compound alone
Experimental: as §1, §2

[7] = test system: E. cloacae 700323 (strain 6); experiment: MIC by broth microdilution (alone and in combination with meropenam), strain 6; details: Enterobacter cloacae, compound alone
Experimental: as §1, §2

[8] = test system: P. aeruginosa 9027 (strain 10); experiment: MIC by broth microdilution (alone and in combination with meropenam), strain 10; details: Pseudomonas aeruginosa, compound alone
Experimental: as §1, §2

[9] = test system: K. pneumoniae 700603 (strain 4); experiment: MIC by broth microdilution (alone and in combination with meropenam), strain 4; details: Klebsiella pneumoniae, compound alone
Experimental: as §1, §2

E. coli 8739 (strain 2) = experiment: MIC by broth microdilution (alone and in combination with meropenam), strain 2; details: Escherichia coli, compound alone
Experimental: as §1, §2

[10] = read-out: MIC, antibacterial activity of example alone

Compound | MIC [1, 10] [µg/mL] | MIC [2, 10] [µg/mL] | MIC [3, 10] [µg/mL] | MIC [4, 10] [µg/mL] | MIC [5, 10] [µg/mL] | MIC [6, 10] [µg/mL] | MIC [7, 10] [µg/mL] | MIC [8, 10] [µg/mL] | MIC [9, 10] [µg/mL] | MIC (E. coli 8739 (strain 2); [10]) [µg/mL] | MIC ([1]; read-out: MIC) [µg/mL] | MIC ([2]; read-out: MIC) [µg/mL] | MIC ([3]; read-out: MIC) [µg/mL] | MIC ([4]; read-out: MIC) [µg/mL] | MIC ([5]; read-out: MIC) [µg/mL] | MIC ([6]; read-out: MIC) [µg/mL] | MIC ([7]; read-out: MIC) [µg/mL] | MIC ([8]; read-out: MIC) [µg/mL] | MIC ([9]; read-out: MIC) [µg/mL] | MIC (E. coli 8739 (strain 2); read-out: MIC) [µg/mL]
CC(=O)NCCC(=O)NC(=N)[C@@H]1CC[C@@H]2CN1C(=O)N2OS(=O)(=O)[O-].[Na+] [Ex.19, Sodium (2S,5R)-2-(N-(3-acetamidopropanoyl)carbamimidoyl)-7-oxo-1,6-diazabicyclo[3.2.1]octan-6-yl Sulfate] | > 64 | > 64 | > 64 | > 64 | > 64 | > 64 | > 64 | > 64 | > 64 | > 64 | – | – | – | – | – | – | – | – | – | –
CC(=O)NC(=N)[C@@H]1CC[C@@H]2CN1C(=O)N2OS(=O)(=O)O [Ex.9, (2S,5R)-2-(N-acetylcarbamimidoyl)-7-oxo-1,6-diazabicyclo[3.2.1]octan-6-yl Hydrogen Sulfate] | > 64 | > 64 | > 64 | > 64 | > 64 | > 64 | > 64 | > 64 | > 64 | > 64 | – | – | – | – | – | – | – | – | – | –
N=C(NC(=O)c1nccs1)[C@@H]1CC[C@@H]2CN1C(=O)N2OS(=O)(=O)[O-].[Na+] [Ex.23, Sodium (2S,5R)-7-oxo-2-(N-(thiazole-2-carbonyl)carbamimidoyl)-1,6-diazabicyclo[3.2.1]octan-6-yl Sulfate] | > 64 | > 64 | > 64 | > 64 | > 64 | > 64 | > 64 | > 64 | > 64 | > 64 | – | – | – | – | – | – | – | – | – | –
N=C(NC(=O)c1ccncc1)[C@@H]1CC[C@@H]2CN1C(=O)N2OS(=O)(=O)O [Ex.7, (2S,5R)-2-(N-isonicotinoylcarbamimidoyl)-7-oxo-1,6-diazabicyclo[3.2.1]octan-6-yl Hydrogen Sulfate] | > 64 | > 64 | > 64 | > 64 | > 64 | > 64 | > 64 | > 64 | > 64 | > 64 | – | – | – | – | – | – | – | – | – | –
N=C(NC(=O)c1cscn1)[C@@H]1CC[C@@H]2CN1C(=O)N2OS(=O)(=O)[O-].[Na+] [Ex.16, Sodium (2S,5R)-7-oxo-2-(N-(thiazole-4-carbonyl)carbamimidoyl)-1,6-diazabicyclo[3.2.1]octan-6-yl Sulfate] | > 64 | > 64 | > 64 | > 64 | > 64 | > 64 | > 64 | > 64 | > 64 | > 64 | – | – | – | – | – | – | – | – | – | –
N=C(NC(=O)Cc1ncccn1)[C@@H]1CC[C@@H]2CN1C(=O)N2OS(=O)(=O)[O-].[Na+] [Ex.25, Sodium (2S,5R)-7-oxo-2-(N-(2-(pyrimidin-2-yl)acetyl)carbamimidoyl)-1,6-diazabicyclo[3.2.1]octan-6-yl Sulfate] | > 64 | > 64 | > 64 | > 64 | > 64 | > 64 | > 64 | > 64 | > 64 | > 64 | – | – | – | – | – | – | – | – | – | –

Second part, the compound after the results:

MIC [1, 10] [µg/mL] | MIC [2, 10] [µg/mL] | MIC [3, 10] [µg/mL] | MIC [4, 10] [µg/mL] | MIC [5, 10] [µg/mL] | MIC [6, 10] [µg/mL] | MIC [7, 10] [µg/mL] | MIC [8, 10] [µg/mL] | MIC [9, 10] [µg/mL] | MIC (E. coli 8739 (strain 2); [10]) [µg/mL] | MIC ([1]; read-out: MIC) [µg/mL] | MIC ([2]; read-out: MIC) [µg/mL] | MIC ([3]; read-out: MIC) [µg/mL] | MIC ([4]; read-out: MIC) [µg/mL] | MIC ([5]; read-out: MIC) [µg/mL] | MIC ([6]; read-out: MIC) [µg/mL] | MIC ([7]; read-out: MIC) [µg/mL] | MIC ([8]; read-out: MIC) [µg/mL] | MIC ([9]; read-out: MIC) [µg/mL] | MIC (E. coli 8739 (strain 2); read-out: MIC) [µg/mL] | Compound
> 64 | > 64 | > 64 | > 64 | > 64 | > 64 | > 64 | > 64 | > 64 | > 64 | – | – | – | – | – | – | – | – | – | – | N=C(NC(=O)Cn1ccnc1)[C@@H]1CC[C@@H]2CN1C(=O)N2OS(=O)(=O)[O-].[Na+] [Ex.39, Sodium (2S,5R)-2-(N-(2-(1H-imidazol-1-yl)acetyl)carbamimidoyl)-7-oxo-1,6-diazabicyclo[3.2.1]octan-6-yl Sulfate]
– | – | – | – | – | – | – | – | – | – | > 64 | > 64 | > 64 | > 64 | > 64 | > 64 | > 64 | > 64 | > 64 | > 64 | N#Cc1ccc(C(=O)NC(=N)[C@@H]2CC[C@@H]3CN2C(=O)N3OS(=O)(=O)[O-])cc1.[Na+] [Ex.45, Sodium (2S,5R)-2-(N-(4-cyanobenzoyl)carbamimidoyl)-7-oxo-1,6-diazabicyclo[3.2.1]octan-6-yl Sulfate]
